In brackets after ≈: the same amount, converted by molar mass.
Columns and labels:
[1] = test system: Bacillus subtilis ATCC 6633; test: minimal inhibitory concentration, in vitro antibacterial activity; type: cell-based; conditions: ATCC6633, 37° C., 20 hours
Description: (§1) The in vitro antibacterial activities of typical examples of the present compounds [I] were evaluated in terms of the minimal inhibitory concentration defined as the lowest concentration of the compound preventing the bacterial growth. The Gram-positive bacteria used as test microorganisms included Bacillus subtilis, Staphylococcus aureus and Streptococcus faecalis, and the Gram-negative bacteria used as test microorganisms included Escherichia coli, Enterobacter cloacae, Klebsiella pneumoniae, Proteus vulgaris, Pseudomonas aeruginosa, Serratia marcescens and Salmonella enteritidis. The minimal inhibitory concentration (cultured at 37° C. for 20 hours) was determined according to the standard method prescribed by the Japan Society of Chemotherapy (CHEMOTHERAPY, Vol. 29, No. 1, p. 76, 1981). The following compounds were used as typical examples of the present compounds [I]. At the end of the chemical name of each compound, its tentative designation is given in Parentheses.
(§2) For purposes of comparison, the in vitro antibacterial activities of ofloxacin, OPC-7241 and compound α were evaluated according to the same method as described above and the test results thus obtained are also shown in Table 1.

[2] = test system: Enterobacter cloacae 963; test: as above; type: cell-based; conditions: 37° C., 20 hours
Description: as §1, §2

[3] = test system: Escherichia coli CI-304; test: as above; type: cell-based; conditions: CI304, 37° C., 20 hours
Description: as §1, §2

[4] = test system: Serratia marcescens IAM 1184; test: as above; type: cell-based; conditions: IAM1184, 37° C., 20 hours
Description: as §1, §2

[5] = test system: Salmonella enteritidis G14; test: as above; type: cell-based; conditions: Salmonella enterica, 37° C., 20 hours
Description: as §1, §2

[6] = test system: Proteus vulgaris ATCC 13315; test: as above; type: cell-based; conditions: ATCC13315, 37° C., 20 hours
Description: as §1, §2

[7] = test system: Klebsiella pneumoniae PCI 602; test: as above; type: cell-based; conditions: PCI602, 37° C., 20 hours
Description: as §1, §2

[8] = test system: Staphylococcus aureus FDA 209P JC-1; test: as above; type: cell-based; conditions: FDA209P, 37° C., 20 hours
Description: as §1, §2

[9] = test system: Pseudomonas aeruginosa NCTC 10490; test: as above; type: cell-based; conditions: NCTC10490, 37° C., 20 hours
Description: as §1, §2

[10] = test system: Escherichia coli NIHJ JC-2; test: as above; type: cell-based; conditions: NIHJJC2, 37° C., 20 hours
Description: as §1, §2

[11] = test system: Streptococcus faecalis AHU 1085; test: as above; type: cell-based; conditions: Enterococcus faecalis, AHU1085, 37° C., 20 hours
Description: as §1, §2

[12] = test system: Escherichia coli CI-304; test: therapeutic effect on experimentally induced infection in mice; type: in vivo, Escherichia coli CI-304 in male ddY strain mice; conditions: CI304, po, 168 h, orally, one hour after inoculation, survival after 7 days
Description: Using male ddY strain mice infected with Escherichia coli CI-304 (in groups of five; weighing 20±1 g), the therapeutic effect of some typical examples of the present compounds [I] was tested. The therapeutic effect was evaluated by administering each test compound orally to infected mice and calculating ED50 from the number of mice surviving after the lapse of 7 days. Infected mice were prepared by suspending cells of the aforesaid Escherichia coli strain in a 5% mucin solution and injecting this suspension into the peritoneal cavity of mice. The dose of the bacterial cells was ten times the minimal lethal dose which had previously been determined by a preliminary test. One hour after inoculation of the bacterial cells, each test compound was administered orally to the mice.
For purposes of comparison, ofloxacin and OPC-7241 were tested in the same manner as described above and the results thus obtained are also shown in Table 3.

[13] = enteral absorbability, serum concentration after oral administration to mice; type: in vivo; conditions: mouse, 50 mg/kg orally, fasted male ICR mice; for concentration at 0.5 h: 30 min.
Description: Using male ICR mice fasted overnight (weighing 20±1 g), the enteral absorbability of some typical examples of the present compounds [I] was tested. This test was carried out by administering 50 mg/kg of each test compound orally to mice and determining its serum concentration 30 minutes, 1 hour, 2 hours and 4 hours after administration. Five mice were used for each test point. At each test point, whole blood was collected from the mice by cardiac puncture and used to prepare serum samples. Concentrations of the test compounds in serum samples were determined by the paper disc method using Escherichia coli CI-304 as the test microorganism.
For purposes of comparison, the enteral absorbability of ofloxacin and OPC-7241 was tested in the same manner as described above and the results thus obtained are also shown in Table 2.

[14] = 1 mg/mouse (equivalent to 50 mg/kg) orally, cited from earlier work
[15] = test system: Gram-positive bacteria; test: confirmatory experiment on the antibacterial activity of Compound α; type: cell-based
Text: (§3) On the other hand, Compound α has only been reported to be useful as an intermediate material for the preparation of 9-fluoro-6, 7-dihydro-7-hydroxy-5-methyl-1-oxo-1H, 5H-benzo[ij]quinolizine-2-carboxylic acid (Japanese Patent Laid-Open No. 127,099/'76), and no detailed report on its antibacterial activity has been published.

[16] = test system: Gram-negative bacteria (such as Pseudomonas aeruginosa, Serratia marcescens and the like); test: as above; type: cell-based
Text: as §3

[17] = 50 mg/kg orally, fasted mice, after 30 minutes; cited from earlier work
[18] = test system: Gram-negative and Gram-positive bacteria; conditions: in vitro tests with Gram-negative and Gram-positive bacteria; cited from earlier work

Row | SMILES | MIC [1] [µg/mL] | MIC [2] [µg/mL] | MIC [3] [µg/mL] | MIC [4] [µg/mL] | MIC [5] [µg/mL] | MIC [6] [µg/mL] | MIC [7] [µg/mL] | MIC [8] [µg/mL] | MIC [9] [µg/mL] | MIC [10] [µg/mL] | MIC [11] [µg/mL] | ED50 [12] [mg/kg] | concentration at 0.5 h [13] [ng/mL] | concentration at 1 h [13] [ng/mL] | concentration at 2 h [13] [ng/mL] | concentration at 4 h [13] [ng/mL] | other results
1 | CC1COc2c(N3CCN(C)CC3)c(F)cc3c(=O)c(C(=O)O)cn1c23 (stereo not shown) [Ofloxacin, 9-fluoro-3-methyl-10-(4-methyl-1-piperazinyl)-7-oxo-2,3-dihydro-7H-pyrido[1,2,3-de][1,4]benzoxazine-6-carboxylic acid, reference compound] | 0.1 (≈ 0.277 µM) | 0.2 (≈ 0.553 µM) | 0.1 (≈ 0.277 µM) | 0.78 (≈ 2.16 µM) | 0.39 (≈ 1.08 µM) | 0.1 (≈ 0.277 µM) | 0.1 (≈ 0.277 µM) | 0.2 (≈ 0.553 µM) | 0.78 (≈ 2.16 µM) | 0.2 (≈ 0.553 µM) | 0.78 (≈ 2.16 µM) | 0.9 | 9000 | 6200 | 2600 | 1200 | residual concentration in the serum ([14]; 2 hours after administration): 1.5 µg/mL; serum concentration ([14]; fasted mice, after 30 minutes): 10000 ng/mL
2 | CC1CN(c2c(F)cc3c(=O)c(C(=O)O)cn4c3c2C(=O)CC4C)CCN1 (stereo not shown) [Compound 16, 9-fluoro-5-methyl-8-(3-methyl-1-piperazinyl)-6,7-dihydro-1,7-dioxo-1H, 5H-benzo[ij]quinolizine-2-carboxylic acid] | 0.2 (≈ 0.536 µM) | 0.2 (≈ 0.536 µM) | 0.1 (≈ 0.268 µM) | 1.56 (≈ 4.18 µM) | 0.78 (≈ 2.09 µM) | 0.2 (≈ 0.536 µM) | 0.1 (≈ 0.268 µM) | 0.2 (≈ 0.536 µM) | 0.78 (≈ 2.09 µM) | 0.2 (≈ 0.536 µM) | 0.78 (≈ 2.09 µM) | 0.71 | 16400 | 13600 | 8100 | 4800 | –
3 | CC1CN(c2c(F)cc3c(=O)c(C(=O)O)cn4c3c2C=CC4C)CCN1 (stereo not shown) [Compound 29, 9-Fluoro-5-methyl-8-(3-methyl-1-piperazinyl) -1-oxo-1H, 5H-benzo[ij]quinolizine-2-carboxylic acid] | 0.2 (≈ 0.56 µM) | 0.2 (≈ 0.56 µM) | 0.1 (≈ 0.28 µM) | 0.78 (≈ 2.18 µM) | 0.78 (≈ 2.18 µM) | 0.1 (≈ 0.28 µM) | 0.1 (≈ 0.28 µM) | 0.2 (≈ 0.56 µM) | 1.56 (≈ 4.37 µM) | 0.1 (≈ 0.28 µM) | 0.78 (≈ 2.18 µM) | 0.69 | 15600 | 14400 | 9800 | 4200 | –
4 | CC1CC(=O)c2cc(F)cc3c(=O)c(C(=O)O)cn1c23 (stereo not drawn) [Compound α, 9-fluoro-6,7-dihydro-1,7-dioxo-5-methyl-1H, 5H-benzo[ij]quinolizine-2-carboxylic acid, reference compound] | 12.5 (≈ 45.4 µM) | 12.5 (≈ 45.4 µM) | 12.5 (≈ 45.4 µM) | > 100 | 50 (≈ 182 µM) | 25 (≈ 90.8 µM) | 12.5 (≈ 45.4 µM) | > 100 | > 100 | 25 (≈ 90.8 µM) | > 100 | – | – | – | – | – | efficacy against Gram-positive bacteria [15]: low; efficacy against Gram-negative bacteria [16]: utterly ineffective
5 | CC1CCc2c(N3CCN(C)CC3)c(F)cc3c(=O)c(C(=O)O)cn1c23 (stereo not shown) [OPC-7241, 9-fluoro-6,7-dihydro-5-methyl-8-(4-methyl-1-piperazinyl)-1-oxo-1H, 5H-benzo[ij]quinolizine-2-carboxylic acid, reference compound] | 0.1 (≈ 0.278 µM) | 0.78 (≈ 2.17 µM) | 0.2 (≈ 0.556 µM) | 1.56 (≈ 4.34 µM) | 0.78 (≈ 2.17 µM) | 0.1 (≈ 0.278 µM) | 0.1 (≈ 0.278 µM) | 0.39 (≈ 1.09 µM) | 3.13 (≈ 8.71 µM) | 0.39 (≈ 1.09 µM) | 0.78 (≈ 2.17 µM) | 1.7 | 9300 | 7800 | 4100 | 2200 | –
6 | CC1CC(=O)c2c(N3CCN(C)CC3)c(F)cc3c(=O)c(C(=O)O)cn1c23 (stereo not shown) [Compound 3, 9-Fluoro-5-methyl-8-(4-methyl-1-piperazinyl)-6,7-dihydro-1,7-dioxo-1H, 5H-benzo[ij]quinolizine-2-carboxylic acid] | 0.1 (≈ 0.268 µM) | 0.2 (≈ 0.536 µM) | 0.1 (≈ 0.268 µM) | 1.56 (≈ 4.18 µM) | 0.78 (≈ 2.09 µM) | 0.2 (≈ 0.536 µM) | 0.1 (≈ 0.268 µM) | 0.39 (≈ 1.04 µM) | 0.78 (≈ 2.09 µM) | 0.2 (≈ 0.536 µM) | 0.78 (≈ 2.09 µM) | 0.52 | 24200 | 22400 | 12600 | 8400 | –
7 | CCn1cc(C(=O)O)c(=O)c2cc(F)c(N3CCNCC3)cc21 [norfloxacin, 1-ethyl-6-fluoro-1,4-dihydro-7-(1-piperazinyl)-4-oxoquinoline-3-carboxylic acid] | – | – | – | – | – | – | – | – | – | – | – | – | – | – | – | – | degree of absorption into the serum, average peak value [17]: 1 ± 0.6 µg/mL; antibacterial activity [18]: excellent antibacterial activity
